Test [1] deals with Staphylococcus aureus ATCC 700699 (MRSA). The test is described as follows: minimum inhibitory concentration; extreme values may be limits of the assay. In a few lines:
(§1)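 Methicillin-susceptible and methicillin-resistant Staphylococcus aureus were tested by broth microdilution in 96-well plates, following CLSI guidance with a resazurin redox read-out. Compounds were tested from 0 to 100 µM and incubated with bacteria for 24 h at 37°C, then 30 µl of 0.015% resazurin was added for 2–4 h, with positive controls on each plate. The minimum inhibitory concentration was the lowest concentration that stayed blue rather than turning pink. Runs were done at least twice in triplicate.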

The subject of test [2] is Staphylococcus aureus ATCC 29213 (MSSA). The test is described as above. In a few lines: as §1

From the supplement of paper PMC6206229 come the findings set out here.

≈ marks a conversion by molar mass, not a printed value.

As for `CNC(=O)c1nn(C)c2c1C(C)(C)Cc1cnc(Nc3ccc(N4CCN(C)CC4)cc3)nc1-2`, the minimum inhibitory concentration in test [1] and in test [2] was > 50 µM each time.
For `Clc1ccc(-n2cc(COc3ccnc4ccccc34)nn2)cc1`, the minimum inhibitory concentration in test [1] and in test [2] was > 50 µM in each case.
Take `CCn1ncc2c(NC3CCOCC3)c(CNC(=O)c3ccnn3C)c(C)nc21`: the minimum inhibitory concentration in test [1] and in test [2] was > 50 µM each time.
Take `C[C@]1(O)C[C@@H](c2nc(-c3ccc4ccc(-c5ccccc5)nc4c3)c3c(N)nccn32)C1`: the minimum inhibitory concentration in test [1] and in test [2] was > 50 µM in each case.
Take `CN1CCN(c2nccc3[nH]c(-c4cccc(F)c4)cc23)CC1`: the minimum inhibitory concentration in test [1] and in test [2] was > 50 µM in each case.
As to `O=C1COCc2ccc(Br)cc2N1Cc1ccc(C(F)(F)F)cc1`, the minimum inhibitory concentration in test [1] and in test [2] was > 50 µM in each case.
On to `CNc1snc(C)c1C(=O)NCCOc1ccc(OC)cc1`, for which the minimum inhibitory concentration in test [1] and in test [2] was > 50 µM in each case.
Regarding `C[C@H](C(N)=O)N1CCCC[C@H]1c1ccc(OCc2cccc(F)c2)cc1`, the minimum inhibitory concentration in test [1] and in test [2] was > 50 µM in each case.
Regarding `Cc1cccc(Cn2ccc(NC(=O)c3ccc4c(c3)OCO4)n2)c1`, the minimum inhibitory concentration in test [1] and in test [2] was > 50 µM throughout.
Turning to `CC(C)(C)OC(=O)N1CCC(Cn2nc(-c3cnc4ccccc4c3)c3c(N)ncnc32)CC1`, the minimum inhibitory concentration in test [1] and in test [2] was > 50 µM throughout.
Take `Cc1cc(C2=NOC(c3cc(Cl)c(F)c(Cl)c3)(C(F)(F)F)C2)ccc1C(=O)NCc1ccc2c(c1)C(C)(C)OB2O` (stereo not given): the minimum inhibitory concentration in test [1] and in test [2] was > 50 µM throughout.
`Cc1ccccc1CN1CCC(O)(c2ccc(Cl)c(C(F)(F)F)c2)CC1`: the minimum inhibitory concentration in test [1] and in test [2] was > 50 µM throughout.
Take `Cc1ccc(S(=O)(=O)N2CCN(C(=O)c3cc(-c4ccccc4)n[nH]3)CC2)cc1`: the minimum inhibitory concentration in test [1] and in test [2] was > 50 µM throughout.
For `c1csc(-c2cnc3sc(NCC4CCOCC4)nn23)c1`, the minimum inhibitory concentration in test [1] and in test [2] was > 50 µM in each case.
Regarding `Cc1ccc(S(=O)(=O)Nc2ccc(CN3CCN(C(=O)c4cccc(C#N)c4)CC3)cc2)cc1`, the minimum inhibitory concentration in test [1] and in test [2] was > 50 µM throughout.
In the case of `COc1cc(OC)cc(C(=O)NCC2Cc3cc(Cl)cc(-c4ccncc4)c3O2)c1` (stereo not given), the minimum inhibitory concentration in test [1] and in test [2] was > 50 µM each time.
Consider `Nc1ncnc2[nH]nc(Cc3cccc4ccccc34)c12`, for which the minimum inhibitory concentration in test [1] and in test [2] was > 50 µM in each case.
Take `Clc1cccc(C(c2ccc(CN3CCNCC3)cc2)n2ccnc2)c1` (stereo not given): the minimum inhibitory concentration in test [1] and in test [2] was > 50 µM in each case.
For the compound `CCC(Sc1nc2ccccc2o1)C(=O)Nc1nccs1` (stereo not given), the minimum inhibitory concentration was 50 µM (≈ 16 µg/mL) in test [1] and > 50 µM in test [2].
`CN1CCN(c2nccc3nc(-c4ccc(F)c(F)c4)[nH]c23)CC1`: the minimum inhibitory concentration in test [1] and in test [2] was > 50 µM in each case.
For `CC(=O)N(CCN(C(=O)c1ccc(F)cc1)c1ccccc1)c1ccccc1`, the minimum inhibitory concentration in test [1] and in test [2] was > 50 µM throughout.
Consider `COC(=O)c1ccc(F)cc1NS(=O)(=O)c1cccc(-c2cnn(Cc3ccccc3)c2)c1`, for which the minimum inhibitory concentration in test [1] and in test [2] was > 50 µM in each case.
Regarding `FC(F)(F)c1nnc2ccc(Cl)nn12`, the minimum inhibitory concentration in test [1] and in test [2] was > 50 µM each time.
On to `CC(C)(CN)c1nc(-c2ccc(Cl)c(O)c2)c(-c2ccnc(N)n2)[nH]1`, for which the minimum inhibitory concentration in test [1] and in test [2] was > 50 µM each time.
As for `Nc1cccnc1Nc1ccc(Cl)cc1`, the minimum inhibitory concentration in test [1] and in test [2] was > 50 µM throughout.
As to `O=C1N(Cc2cc3ccccc3s2)CC2CN(Cc3ccccc3)CCN12` (stereo not given), the minimum inhibitory concentration in test [1] and in test [2] was > 50 µM in each case.
Regarding `COc1cccc(-c2cc3c(Nc4cccnc4)nccc3[nH]2)c1`, the minimum inhibitory concentration in test [1] and in test [2] was > 50 µM throughout.
On to `CCc1nn(C)c(C(=O)NCc2ccc(Oc3ccc(C)cc3)cc2)c1Cl`, for which the minimum inhibitory concentration in test [1] and in test [2] was > 50 µM each time.
On to `COc1cc(CN2CCC3(C=Cc4ccccc43)CC2)cc2c1OCO2`, for which the minimum inhibitory concentration in test [1] and in test [2] was > 50 µM each time.
Consider `Cc1nn(C)cc1C(C)Nc1nncc(-c2ccc(C(F)(F)F)cc2)n1` (stereo not given), for which the minimum inhibitory concentration in test [1] and in test [2] was > 50 µM each time.
`CCOc1ccc(-c2nc(CNCCc3ccc(F)cc3)cs2)cc1`: the minimum inhibitory concentration in test [1] and in test [2] was > 50 µM each time.
As for `O=C(NCCc1ccn(-c2ccccc2)n1)C1CCCCC1`, the minimum inhibitory concentration in test [1] and in test [2] was > 50 µM each time.
For `CCc1nc2ccccc2n1CC(O)COc1cc(C)ccc1Cl` (stereo not given), the minimum inhibitory concentration in test [1] and in test [2] was > 50 µM in each case.
On to `CCc1cc(=O)n(C)c(SC(C)C(=O)Nc2ccc(F)cc2)n1` (stereo not given), for which the minimum inhibitory concentration in test [1] and in test [2] was > 50 µM each time.
As for `CCCn1nnc(NC(=O)COc2ccc(C3CCCCC3)cc2)n1`, the minimum inhibitory concentration in test [1] and in test [2] was > 50 µM each time.
Consider `CCN(CC)C(=O)N1CCN(C)CC1`, for which the minimum inhibitory concentration in test [1] and in test [2] was > 50 µM each time.
Take `COc1ccc(Nc2ccccc2NC(=O)c2ccc(O)nc2)cc1`: the minimum inhibitory concentration in test [1] and in test [2] was > 50 µM in each case.
Turning to `O=C(NC1CC1)c1ccc(CSCc2ccccc2Cl)o1`, the minimum inhibitory concentration in test [1] and in test [2] was > 50 µM in each case.
Consider `COc1ccccc1OCCCCn1c(C2CC2)nc2ccccc21`, for which the minimum inhibitory concentration in test [1] and in test [2] was > 50 µM in each case.
As for `CCOc1ccccc1NC(C)C(=O)Nc1cc(C(F)(F)F)ccc1N1CCOCC1` (stereo not given), the minimum inhibitory concentration in test [1] and in test [2] was > 50 µM each time.
As for `Cc1ccc2[nH]c(C3CCCNC3)c(-c3ccncc3)c2c1` (stereo not given), the minimum inhibitory concentration in test [1] and in test [2] was > 50 µM each time.
For `NCC(=O)N1CCn2c(nc(-c3ccccc3)c2Nc2ccc3c(c2)OCO3)C1`, the minimum inhibitory concentration in test [1] and in test [2] was > 50 µM throughout.
Take `CCc1nc2ccc(C(=O)NCc3ccc4c(c3)OCO4)cn2c1N(C)Cc1cccs1`: the minimum inhibitory concentration in test [1] and in test [2] was > 50 µM throughout.
As to `Cc1ccccc1C(=O)N1N=C(Nc2ccccc2)SC1(C)C`, the minimum inhibitory concentration in test [1] and in test [2] was > 50 µM throughout.
Regarding `COc1ccc(-c2cc(NC(=O)c3ccc(F)cc3Cl)ccc2OC)cc1`, the minimum inhibitory concentration in test [1] and in test [2] was > 50 µM throughout.
As for `COc1cc(Br)cc2cc(C(=O)Nc3cccc(C(F)(F)F)c3)c(=O)oc12`, the minimum inhibitory concentration in test [1] and in test [2] was > 50 µM throughout.
Regarding `Nc1ncnc2c1ncn2C[C@@H](O)[C@@H](O)C(=O)O`, the minimum inhibitory concentration in test [1] and in test [2] was > 50 µM throughout.
With `Nc1ncnc2c1c(-c1cnc3ccccc3c1)nn2CC1CCNCC1`, the minimum inhibitory concentration in test [1] and in test [2] was > 50 µM throughout.
On to `O=C(Nc1nnc(S)s1)c1cc(Br)ccc1Cl`, for which the minimum inhibitory concentration in test [1] and in test [2] was > 50 µM throughout.
In the case of `CNC(=O)c1cc(S(=O)(=O)N2CCN(c3ccccn3)CC2)cs1`, the minimum inhibitory concentration in test [1] and in test [2] was > 50 µM in each case.
For the compound `O=C(Nc1cnc2ccccc2c1)c1cccc(-n2cnnn2)c1`, the minimum inhibitory concentration in test [1] and in test [2] was > 50 µM each time.
Turning to `N#Cc1ccc(-c2ccc(OCC(N)=O)cc2)cc1`, the minimum inhibitory concentration in test [1] and in test [2] was > 50 µM in each case.
For `CCCn1c(CNc2ccccc2O)nc2ccccc21`, the minimum inhibitory concentration in test [1] and in test [2] was > 50 µM in each case.
On to `COc1ccc(Cl)cc1NC(=O)CN(C)C(=O)c1cnn(-c2ccccc2)n1`, for which the minimum inhibitory concentration in test [1] and in test [2] was > 50 µM each time.
For the compound `CN(C)CCNC(=O)N1CCCN(c2ncnc3cc(-c4ccccc4)sc23)CC1`, the minimum inhibitory concentration in test [1] and in test [2] was > 50 µM in each case.
On to `Cc1ccc(NC(=O)c2nc[nH]c2C(=O)Nc2nc3ccccc3[nH]2)c(C)c1`, for which the minimum inhibitory concentration in test [1] and in test [2] was > 50 µM throughout.
Consider `Cc1cc(C)c2cc(C(=O)NC3CCCCCCC3)[nH]c2c1`, for which the minimum inhibitory concentration in test [1] and in test [2] was > 50 µM each time.
Take `COc1ccc(OC)c(NCc2ccc3nc(N)nc(N)c3c2Cl)c1`: the minimum inhibitory concentration in test [1] and in test [2] was 50 µM (≈ 18 µg/mL) in each case.
Regarding `N=C(N)c1ccc(OCCCCCOc2ccc(C(=N)N)cc2)cc1`, the minimum inhibitory concentration is > 50 µM in test [1] and 12.5 µM (≈ 4.26 µg/mL) in test [2].
For `CC(C)(C)CN1C(=O)C(c2ccccc2)(c2ccccc2)N=C1N` the same measures were > 50 µM and > 50 µM.
